From patent publication US20040057908A1, “Oral compositions and use thereof” (priority 2003, published 2004)

Tests used:
[1] = system: T1, streptococcal GTFs; experiment: GTF activity in solution, all GTFs (B, C, D, Ss) stated together; format: biochemical, Streptococcus mutans, S. sanguinis; conditions: for inhibitory effects on the activities of GTFs (in words): 1.33 mM (fluoride 250 ppm), solution and sHA surface
T1 construct: Streptococcus milleri KSB8, which harbors the gtfB gene from S. mutans GS-5 (for GTF B production)
Experimental: The GTF enzyme added to each sample for all assays was equivalent to the amount required to incorporate 1.0-1.5 μmol of glucose over the four hours reaction (1.0-1.5 units).
The samples were incubated 37° C. with rocking for 4 h.
For this assay, a one-way layout experimental design was used in 4×2×7 factorial scheme (enzyme×state×dose). An analysis of variance was carried out and qualitative treatments were compared using Tukey test at level of 5% of significance (p<0.05). A non-linear regression was applied in order to evaluate effects of different concentrations.

[2] = system: Mutans Streptococci Strains; experiment: MIC and MBC, broth dilution, all strains stated together; format: cell-based, S. mutans (GS-5 and UA159) and S. sobrinus 6715; conditions: Streptococcus mutans
Experimental: The minimum inhibitory concentration (MIC) and minimum bactericidal concentration (MBC) were determined for each test compound according to the National Committee for Clinical Laboratory Standards guidelines (Tentative standard M26-T, 1992; NCCLS Publication No. M7-A5, 2000) and Koo et al. (2000b). The broth microdilution and macrodilution methods (in TSB) were used for the antibacterial tests. The starting inoculum was 5×10^5 CFU/ml and the concentrations of test compounds ranged from 15.6 to 500 μM (two-fold dilutions). The MICs and MBCs were determined in quadruplicate in at least 3 different experiments.

[3] = system: S. mutans UA159 and S. sobrinus 6715 biofilms; experiment: Time-kill assay in 5-day-old biofilms; format: cell-based; conditions: 1.33 mM (fluoride 250 ppm)
Experimental: Cells of mutans streptococci were grown in tryptone-yeast extract broth with addition of 1% (w/v) sucrose at 37° C. and 5% CO2. […] The killing assays were performed according to Phan et al. (2000). […] The homogenized suspension was serially diluted (10^1 to 10^4) and plated on tryptic soy agar or blood agar by means of a spiral plater (Autoplate model 3000, Spiral Biotech, Inc., Bethesda, Md). […] Killing curves were constructed by plotting log10 CFU/ml versus time over 4 h. All the assays were carried out in quadruplicate on at least 3 different occasions. Bactericidal effect was defined as a ≧3 log10 decreases in the CFU/ml from initial viable counts, at time zero. The potential for drug carry-over to produce falsely low viability counts was minimized by dilution of inocula and plating of small volumes of diluted samples (50 μl).

[4] = system: Streptococcus sobrinus 6715; experiment: Rat caries experiment: S. sobrinus recovered from the jaws; format: in vivo, Sprague Dawley rats; conditions: rats, topical twice daily, five weeks; 1.33 mM (fluoride 250 ppm); means (SD)
Experimental: (§1) Seven litters of ten female Sprague Dawley rats aged 14 days were purchased with their dams from Charles River (Kingston, N.Y., USA). […] The experiment proceeded for five weeks, at which time the animals were killed by CO2 asphyxiation. The lower left jaw was aseptically dissected, suspended in 5.0 mL of sterile saline solution, and sonicated (three 10-second pulses with 5-second intervals at 30 watts, Branson Sonifier 450). The suspension was plated on mitis salivarius agar plus streptomycin to estimate S. sobrinus population and on blood agar to determine total cultivable flora (TCF). […] The determination of caries score was blind by codification of the jaws and was done by 1 calibrated examiner. […] The level of significance was 5%.

[5] = system: dental caries; experiment: Rat caries experiment: caries scores (Larson's modification of Keyes' system); format: in vivo, Sprague Dawley rats
Experimental: as §1

## O=C(O)c1ccc(O)c(O)c1 [Protocatechuic acid]
[1]; 125 to 500 μM, solution and surface not told apart
  effects on GTF enzymes (in words): enhanced
[2]
  MIC: > 500 µM

## [F-].[Na+] [Fluoride, sodium fluoride]
[1]
  inhibitory effects on the activities of GTFs (in words): devoid of detectable antimicrobial and anti-GTF activity
[1]; listed as fluoride
  inhibitory effects on the activities of GTFs (in words): either negligible or moderate inhibitory effects
[3]
  antibacterial activity against mutans streptococci biofilms (in words): devoid of detectable antimicrobial and anti-GTF activity
[3]; listed as fluoride
  antibacterial activity against mutans streptococci biofilms (in words): negligible antibacterial activity
[4]
  Infection by S. sobrinus, %: 39.8 (13.2)^ab %
[5]; Ds and Dm levels, tt-farnesol Dm only, p<0.05
  smooth-surface caries severity scores versus control (in words): significantly lower
[5]; rats, topical twice daily, five weeks
  smooth surface caries, Keyes's score: 2.3±3.0
[5]; rats, topical twice daily, five weeks, p<0.05
  reduction of the incidence of smooth surface caries compared to control: 72%
[5]; rats, p<0.05
  incidence and severity of sulcal-surface caries (in words): reduced
